In PMC12238837, “DCAF16‐Based Covalent Molecular Glues for Targeted Protein Degradation of Histone Deacetylases” (Archiv Der Pharmazie, 2025):

Key:
HDAC2 [1] = biological target: T1, HDAC2 (Homo sapiens, UniProt Q92769); assay: HDAC enzyme inhibition assay (ZMAL substrate), HDAC2; format: biochemical; parameters: purchased BPS Bioscience 50052; conditions: n = 2, mean ± SD
Description: (§1) The total assay volume of 50 μL (HDAC2/3/6 max. 1% DMSO; HDAC1 max. 5% DMSO) was incubated at 37°C for 90 min. Subsequently, 50 μL of trypsin (0.4 mg/mL) in trypsin buffer (50 mM Tris−HCl, pH 8.0, 100 mM NaCl) was added, followed by an additional 30 min of incubation at 37°C. Fluorescence (excitation λ = 355 nm, emission λ = 460 nm) was measured using a FLUOstar OPTIMA microplate reader. The IC50 was determined by plotting dose–response curves and performing nonlinear regression using GraphPad Prism.
as §1, with “by” for “by an”, “dose response” for “dose–response”, “Prism.^[3-6]” for “Prism.”

HDAC1 [2] = biological target: T2, HDAC1 (Homo sapiens, UniProt Q13547); assay: HDAC enzyme inhibition assay (ZMAL substrate), HDAC1; format: biochemical; parameters: purchased BPS Bioscience 50051; conditions: n = 2, mean ± SD
T2 sequence (Q13547 whole entry): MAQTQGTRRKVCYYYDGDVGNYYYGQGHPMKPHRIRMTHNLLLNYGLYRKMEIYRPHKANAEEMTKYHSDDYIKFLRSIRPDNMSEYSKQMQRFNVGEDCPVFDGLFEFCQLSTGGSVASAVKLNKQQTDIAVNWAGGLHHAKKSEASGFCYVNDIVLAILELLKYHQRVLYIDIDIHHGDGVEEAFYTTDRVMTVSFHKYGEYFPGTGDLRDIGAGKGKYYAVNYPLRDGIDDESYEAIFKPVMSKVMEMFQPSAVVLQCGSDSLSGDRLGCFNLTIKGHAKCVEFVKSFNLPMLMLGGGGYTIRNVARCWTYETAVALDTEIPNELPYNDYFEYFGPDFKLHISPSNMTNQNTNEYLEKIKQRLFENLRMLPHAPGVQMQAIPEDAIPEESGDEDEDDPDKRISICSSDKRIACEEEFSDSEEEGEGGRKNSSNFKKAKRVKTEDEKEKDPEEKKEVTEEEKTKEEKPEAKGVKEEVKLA
Description: as §1
as §1, with “by” for “by an”, “dose response” for “dose–response”, “Prism.^[3-6]” for “Prism.”

[3] = biological target: T3, Human recombinant HDAC3/NcoR2 (Homo sapiens, UniProt O15379); assay: HDAC enzyme inhibition assay (ZMAL substrate), HDAC3; format: biochemical; conditions: n = 2, mean ± SD
T3 construct: purchased BPS Bioscience 50003
T3 sequence (O15379 whole entry): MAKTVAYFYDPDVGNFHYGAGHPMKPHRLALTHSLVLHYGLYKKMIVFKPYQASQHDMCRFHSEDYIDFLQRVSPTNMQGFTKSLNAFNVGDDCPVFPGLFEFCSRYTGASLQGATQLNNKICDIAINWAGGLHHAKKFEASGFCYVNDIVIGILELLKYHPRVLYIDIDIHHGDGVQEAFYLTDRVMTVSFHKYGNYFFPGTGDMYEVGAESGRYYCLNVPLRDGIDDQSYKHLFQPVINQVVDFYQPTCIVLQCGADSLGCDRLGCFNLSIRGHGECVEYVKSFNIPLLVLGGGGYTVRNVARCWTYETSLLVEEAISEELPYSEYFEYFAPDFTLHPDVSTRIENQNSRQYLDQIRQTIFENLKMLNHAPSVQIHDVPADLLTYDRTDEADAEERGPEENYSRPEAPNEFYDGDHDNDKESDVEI
T3 sequence (Q9Y618 395-489 partner limits assumed): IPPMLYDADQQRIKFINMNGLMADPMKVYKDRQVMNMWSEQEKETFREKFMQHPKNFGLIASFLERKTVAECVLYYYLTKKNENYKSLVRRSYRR
Description: as §1
as §1, with “by” for “by an”, “dose response” for “dose–response”, “Prism.^[3-6]” for “Prism.”

HDAC1 [4] = biological target: T2, HDAC1; assay: HDAC1 degradation, western blot in MM.1S cells; format: cell-based; parameters: endogenous in cells; host or cells: MM.1S; conditions: 24 h; for HDAC1 protein levels: immunoblot
Description: First, the multiple myeloma cell line MM.1S was treated with varying concentrations (1, 10, and 25 µM) of degraders 10a–d for 6 and 24 h, respectively. HDAC1 and HDAC6 were selected for investigation due to their critical roles in various diseases such as cancer. HDAC1 and HDAC6 protein levels were subsequently evaluated using western blot analysis. […] This limited efficacy could be due to insufficient incubation time of the compounds with MM.1S cells. […] All compounds still exerted no degradation of HDAC6 at different concentrations after 24 h of treatment. However, different from 10b–d, degrader 10a, which contains a hydroxamic acid as ZBG, achieved substantial degradation of HDAC1 with a maximal degradation (D max) value of 74% at 25 μM. Consequently, Compound 10a was selected for further biological evaluations based on the initial screening results.
(§2) The MM.1S was obtained from ATCC (Manassas, VA, USA). MM.1S cells were cultivated in RPMI 1640 medium supplemented with 10% FBS, 100 IU/mL penicillin, 0.1 mg/mL streptomycin, and 1 mM sodium pyruvate at 37°C in a 5% CO2 atmosphere.
(§3) The MM.1S cells (3 × 10^6 cells/mL) were seeded into cell culture flasks and, after 72 h, treated with the indicated concentration of compound or DMSO for the given time. Cell lysis was performed with Cell Extraction Buffer and the addition of Halt Protease Inhibitor Cocktail and phenylmethanesulfonyl fluoride. Protein content was determined by Pierce BCA Protein Assay Kit. Samples were denatured by Laemmli 2× Concentrate, and Precision Plus Protein Unstained Standard was used as a molecular weight marker in all cases. SDS‐PAGE was performed with 10% Mini‐PROTEAN TGX Stain‐Free Gel (Catalog# 458035, Bio‐Rad, Hercules, CA, USA) at 200 V for 50 min (Catalog# 458035, Bio‐Rad). Afterwards, proteins were transferred with the Trans‐Blot Turbo Transfer System to Immobilon‐FL PVDF membranes at 1.0 A for 30 min and incubated with 5% milk‐powder solution for 1 h at room temperature under slight agitation. […] The ChemiDoc XRS+ System was used for detection, and Image Lab Software 6.1 (Bio‐Rad, Hercules, CA, USA) for quantification.

[5] = test system: acetylated histone H3 (indicator of reduced HDAC1‐3 activity); assay: Cellular target engagement: immunoblot of acetylated histone H3; format: cell-based; conditions: MM.1S cells, 10 µM, 24 h
Description: (§4) Immunoblot analysis of acetylated histone H3 (A) and α‐tubulin (B) in MM.1S cell lysates after treatment with the indicated compounds (10 µM) or vehicle (DMSO) for 24 h. Representative images from a total of n = 2 replicates.
as §3, with “agitation. Subsequently, the membranes were incubated with anti‐HDAC1 (Catalog# 5356S, Cell Signaling Technology, Denver, MA, USA), anti‐HDAC2 (Catalog# 9959S, Cell Signaling Technology, Denver, MA, USA), anti‐HDAC3 (Catalog# 85057S, Cell Signaling Technology, Denver, MA, USA), anti‐HDAC4 (Catalog# 7628S, Cell Signaling Technology, Denver, MA, USA), anti‐HDAC6 (Catalog# 7558S, Cell Signaling Technology, Denver, MA, USA), anti‐acetyl‐histone H3 (Catalog# 9677S, Cell Signaling Technology, Denver, MA, USA), anti‐acetyl‐α‐tubulin (Catalog# 5335, Cell Signaling Technology, Denver, MA, USA), or anti‐GAPDH (Catalog# T0004, Affinity Biosciences, Cincinnati, OH, USA) antibody solutions in 1:1000–1:20000 dilutions at room temperature under slight agitation for 1 h, then put membranes at 4°C for overnight.” for “agitation.”

[6] = test system: acetylated α‐tubulin (marker of decreased HDAC6 activity); assay: Cellular target engagement: immunoblot of acetylated α-tubulin; format: cell-based; conditions: MM.1S cells, 10 µM, 24 h
Description: as §4
as §3, with “agitation. Subsequently, the membranes were incubated with anti‐HDAC1 (Catalog# 5356S, Cell Signaling Technology, Denver, MA, USA), anti‐HDAC2 (Catalog# 9959S, Cell Signaling Technology, Denver, MA, USA), anti‐HDAC3 (Catalog# 85057S, Cell Signaling Technology, Denver, MA, USA), anti‐HDAC4 (Catalog# 7628S, Cell Signaling Technology, Denver, MA, USA), anti‐HDAC6 (Catalog# 7558S, Cell Signaling Technology, Denver, MA, USA), anti‐acetyl‐histone H3 (Catalog# 9677S, Cell Signaling Technology, Denver, MA, USA), anti‐acetyl‐α‐tubulin (Catalog# 5335, Cell Signaling Technology, Denver, MA, USA), or anti‐GAPDH (Catalog# T0004, Affinity Biosciences, Cincinnati, OH, USA) antibody solutions in 1:1000–1:20000 dilutions at room temperature under slight agitation for 1 h, then put membranes at 4°C for overnight.” for “agitation.”

HDAC3 = biological target: T4, HDAC3 (Homo sapiens, UniProt O15379); assay: HDAC3 degradation, western blot in MM.1S cells; format: cell-based; conditions: MM.1S cells, 1, 10, 25 μM
T4 construct: endogenous in cells; host or cells: MM.1S
T4 sequence (O15379 whole entry): as the sequence (O15379 whole entry) above
Description: (§5) Subsequently, degrader 10a was investigated at various concentrations (1, 10, and 25 µM) for degradation effects on different HDAC isoforms, including HDAC2, HDAC3, and HDAC4. […] In detail, 10a induced a modest degradation of HDAC2 (D max = 46% at 25 μM), which may be attributed to the high structural similarity between HDAC1 and HDAC2, particularly in their catalytic domains.
as §2
(§6) The MM.1S cells (3 × 10^6 cells/mL) were seeded into cell culture flasks and, after 72 h, treated with the indicated concentration of compound or DMSO for the given time. Cell lysis was performed with Cell Extraction Buffer and the addition of Halt Protease Inhibitor Cocktail and phenylmethanesulfonyl fluoride. Protein content was determined by Pierce BCA Protein Assay Kit. Samples were denatured by Laemmli 2× Concentrate, and Precision Plus Protein Unstained Standard was used as a molecular weight marker in all cases. […] The ChemiDoc XRS+ System was used for detection, and Image Lab Software 6.1 (Bio‐Rad, Hercules, CA, USA) for quantification.

HDAC2 [7] = biological target: T1, HDAC2; assay: HDAC2 degradation, western blot in MM.1S cells; format: cell-based; parameters: endogenous in cells; host or cells: MM.1S
Description: as §5, §2, §3

MM.1S cells [8] = assay: Annexin V-FITC/PI apoptosis assay, flow cytometry; format: cell-based; conditions: 10 μM, 48 h
Description: The percentage of cells that were annexin V‐positive but PI‐negative was considered as early apoptotic, whereas the percentage of cells that were both annexin V‐ and PI‐positive was considered as late apoptotic. Data are presented as mean ± standard deviation (n = 2 biological replicates, each performed in duplicates). Statistical analysis was performed by using one‐way ANOVA in GraphPad Prism 8. Statistical significance was indicated with asterisks (****p ≤ 0.0001).
MM.1S cells (3 × 10^5 cells/well) were seeded in 24‐well plates and treated with the indicated concentration of compound or DMSO for 48 h under cell culture conditions. Subsequently, cells were washed with cell staining buffer (HEPES 0.1 M, NaCl 1.4 M, CaCl2·3H2O 25 mM), resuspended in 300 µL, and 150 µL was transferred in a 96‐well plate.

HDAC4 = biological target: T5, HDAC4 (Homo sapiens, UniProt P56524); assay: HDAC4 degradation, western blot in MM.1S cells; format: cell-based; conditions: MM.1S cells, 1, 10, 25 μM
T5 construct: HDAC2, HDAC3, and HDAC4 levels were detected by immunoblot analysis; endogenous in cells; host or cells: MM.1S
T5 sequence (P56524 whole entry): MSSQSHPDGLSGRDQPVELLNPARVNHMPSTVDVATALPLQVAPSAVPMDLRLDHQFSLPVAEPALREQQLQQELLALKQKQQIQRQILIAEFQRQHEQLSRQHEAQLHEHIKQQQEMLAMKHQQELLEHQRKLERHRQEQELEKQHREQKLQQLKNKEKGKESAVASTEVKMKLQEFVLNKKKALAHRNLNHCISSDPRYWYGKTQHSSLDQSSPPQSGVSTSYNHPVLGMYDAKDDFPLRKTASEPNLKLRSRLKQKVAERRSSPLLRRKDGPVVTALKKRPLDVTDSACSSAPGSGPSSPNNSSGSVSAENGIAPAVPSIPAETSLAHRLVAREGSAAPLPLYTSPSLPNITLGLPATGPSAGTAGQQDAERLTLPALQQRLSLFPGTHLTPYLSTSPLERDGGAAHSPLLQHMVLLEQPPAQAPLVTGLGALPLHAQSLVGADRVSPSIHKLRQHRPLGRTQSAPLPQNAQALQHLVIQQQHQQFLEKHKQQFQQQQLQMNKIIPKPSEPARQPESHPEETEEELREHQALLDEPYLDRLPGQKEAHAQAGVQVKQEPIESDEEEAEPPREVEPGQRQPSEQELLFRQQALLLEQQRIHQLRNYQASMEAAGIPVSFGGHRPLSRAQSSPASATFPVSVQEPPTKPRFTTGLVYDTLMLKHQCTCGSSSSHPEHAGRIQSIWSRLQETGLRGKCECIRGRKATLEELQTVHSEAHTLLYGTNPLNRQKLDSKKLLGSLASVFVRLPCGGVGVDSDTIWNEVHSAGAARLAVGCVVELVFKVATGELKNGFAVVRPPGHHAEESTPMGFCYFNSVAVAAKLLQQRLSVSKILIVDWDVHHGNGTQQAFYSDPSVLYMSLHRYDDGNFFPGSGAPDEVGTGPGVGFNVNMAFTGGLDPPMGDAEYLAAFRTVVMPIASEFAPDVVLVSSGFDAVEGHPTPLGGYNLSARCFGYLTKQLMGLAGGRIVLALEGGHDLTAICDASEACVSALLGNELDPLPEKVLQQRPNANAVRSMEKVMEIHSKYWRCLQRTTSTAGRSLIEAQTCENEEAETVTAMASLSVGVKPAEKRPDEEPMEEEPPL
Description: as §5, §2, §6

MM.1S cells [9] = assay: CellTiter-Glo cell viability assay; format: cell-based; conditions: Homo sapiens, MM1.S; MM.1S cells, 72 h, CellTiter-Glo, n = 3, mean ± SD; read-out: IC50 cell viability
Description: The MM.1S was obtained from ATCC (Manassas, VA, USA).
(§7) For this purpose, the dilution series was prepared at 200× concentration in DMSO and then further diluted to 10× concentration in medium. The final DMSO concentration was 0.5%. The toxicity of compounds was assessed after 72 h using the CellTiter‐Glo 2.0 cell viability assay. Luminescence was then measured, and the IC50 was determined by plotting dose–response curves and performing nonlinear regression using GraphPad Prism.
as §7, with “series were” for “series was”, “the CellTiter-Glo” for “the CellTiter‐Glo”, “plotting dose-response” for “plotting dose–response”, “GraphPad Prism.^[1]” for “GraphPad Prism.”

Human recombinant HDAC6 = biological target: T6, Human recombinant HDAC6 (Homo sapiens, UniProt Q9UBN7); assay: HDAC enzyme inhibition assay (ZMAL substrate), HDAC6; format: biochemical; conditions: n = 2, mean ± SD
T6 construct: purchased BPS Bioscience 50006
T6 sequence (Q9UBN7 1-1215): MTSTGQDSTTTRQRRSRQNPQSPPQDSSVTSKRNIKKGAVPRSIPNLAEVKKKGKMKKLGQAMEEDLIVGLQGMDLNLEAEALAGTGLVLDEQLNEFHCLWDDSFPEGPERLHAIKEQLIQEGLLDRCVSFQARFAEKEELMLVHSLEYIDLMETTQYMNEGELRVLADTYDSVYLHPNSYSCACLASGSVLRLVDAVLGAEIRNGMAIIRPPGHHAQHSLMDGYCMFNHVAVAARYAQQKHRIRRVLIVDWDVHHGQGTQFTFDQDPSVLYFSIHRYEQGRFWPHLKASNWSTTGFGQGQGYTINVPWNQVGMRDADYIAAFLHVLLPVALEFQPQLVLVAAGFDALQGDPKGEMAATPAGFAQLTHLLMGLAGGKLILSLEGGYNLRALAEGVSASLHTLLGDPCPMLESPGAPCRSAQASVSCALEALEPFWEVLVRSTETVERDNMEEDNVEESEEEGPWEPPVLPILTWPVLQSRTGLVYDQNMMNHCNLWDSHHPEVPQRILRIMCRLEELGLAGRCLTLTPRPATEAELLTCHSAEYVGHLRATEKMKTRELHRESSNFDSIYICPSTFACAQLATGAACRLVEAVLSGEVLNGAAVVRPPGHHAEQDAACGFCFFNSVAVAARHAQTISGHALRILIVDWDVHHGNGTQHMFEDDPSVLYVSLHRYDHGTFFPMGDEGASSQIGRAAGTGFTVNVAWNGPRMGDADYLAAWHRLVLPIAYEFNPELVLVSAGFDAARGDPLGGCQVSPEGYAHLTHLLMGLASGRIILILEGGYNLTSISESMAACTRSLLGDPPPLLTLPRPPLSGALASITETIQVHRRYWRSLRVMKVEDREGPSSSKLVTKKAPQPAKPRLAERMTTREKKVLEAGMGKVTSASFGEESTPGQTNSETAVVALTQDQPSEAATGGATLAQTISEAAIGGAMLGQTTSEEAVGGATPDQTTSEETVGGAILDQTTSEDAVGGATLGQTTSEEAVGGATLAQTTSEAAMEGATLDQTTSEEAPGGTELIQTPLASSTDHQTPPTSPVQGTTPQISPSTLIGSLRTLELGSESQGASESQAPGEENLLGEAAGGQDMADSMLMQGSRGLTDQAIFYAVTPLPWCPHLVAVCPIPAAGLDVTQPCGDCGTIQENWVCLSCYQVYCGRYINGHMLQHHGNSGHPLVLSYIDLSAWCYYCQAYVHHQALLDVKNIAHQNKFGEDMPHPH
Description: as §1
as §1, with “by” for “by an”, “dose response” for “dose–response”, “Prism.^[3-6]” for “Prism.”

T1 sequence (Q92769 whole entry): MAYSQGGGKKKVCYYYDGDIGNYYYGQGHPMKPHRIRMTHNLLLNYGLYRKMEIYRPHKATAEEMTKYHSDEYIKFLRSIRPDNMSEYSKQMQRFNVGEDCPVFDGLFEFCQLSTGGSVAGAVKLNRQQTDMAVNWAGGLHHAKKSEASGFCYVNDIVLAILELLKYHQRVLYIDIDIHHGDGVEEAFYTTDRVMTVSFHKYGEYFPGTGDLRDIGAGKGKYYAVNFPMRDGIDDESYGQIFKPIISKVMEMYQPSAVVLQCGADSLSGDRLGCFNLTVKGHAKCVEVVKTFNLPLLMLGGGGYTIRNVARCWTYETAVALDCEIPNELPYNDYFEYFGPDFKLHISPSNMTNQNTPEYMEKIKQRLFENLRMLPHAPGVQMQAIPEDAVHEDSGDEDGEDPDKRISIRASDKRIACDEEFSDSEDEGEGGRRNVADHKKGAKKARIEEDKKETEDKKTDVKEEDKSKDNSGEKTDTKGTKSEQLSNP

Row | SMILES | IC50 (HDAC2 [1]) | IC50 (HDAC1 [2]) | IC50 [3] | HDAC1 protein levels (HDAC1 [4]; 25 μM) | level of acetylated histone H3 [5] | level of acetylated α-tubulin [6] | HDAC3 degradation (HDAC3; 6 h) | HDAC3 protein levels (HDAC3; 24 h) | Dmax at 25 µM (HDAC2 [7]; MM1.S, MM.1S cells, 25 μM, 24 h, read-out: maximal degradation (Dmax) of HDAC2) | HDAC2 degradation (HDAC2 [7]; MM.1S cells, 1, 10, 25 μM, 6 h) | HDAC2 protein levels (HDAC2 [7]; MM.1S cells, 1, 10, 25 μM, 24 h) | apoptosis induction: proportions of early and late apoptotic cells (MM.1S cells [8]) | effect on histone H3 acetylation compared with vorinostat [5] | hyperacetylation of α-tubulin compared with vorinostat [6] | HDAC4 degradation (HDAC4; 6 h) | HDAC4 protein levels (HDAC4; 24 h) | DC50 (HDAC1 [4]; 0.37 up to 30 μM, western blot, read-out: half-maximal degradation concentration (DC50) for HDAC1) | Dmax at 25 µM (HDAC1 [4]; MM1.S, 25 μM, western blot, read-out: maximal degradation (Dmax) of HDAC1) | IC50 (MM.1S cells [9]) | IC50 (Human recombinant HDAC6)
1 | CCS(=O)(=O)N1CCN(C(=O)Cc2ccc(NC(=O)CCCCCCC(=O)NO)cc2)CC1 [10a‐nc, N ^1‐(4‐{2‐[4‐(Ethylsulfonyl)piperazin‐1‐yl]‐2‐Oxoethyl}phenyl)‐N ^8‐Hydroxyoctanediamide] | 423 ± 63 nM | 229 ± 4 nM | 323 ± 22 nM | did not affect HDAC1 levels |  |  |  |  |  |  |  |  |  |  |  |  |  |  |  | 
2 | C=CS(=O)(=O)N1CCNCC1 [Compound 8, 1‐(Vinylsulfonyl)piperazine, reference compound] |  |  |  |  | no effects | no effects |  |  |  |  |  |  |  |  |  |  |  |  |  | 
3 | C=CS(=O)(=O)N1CCN(C(=O)Cc2ccc(NC(=O)CCCCCCC(=O)NO)cc2)CC1 [Compound 10a, N ^1‐Hydroxy‐N ^8‐(4‐{2‐oxo‐2‐[4‐(vinylsulfonyl)piperazin‐1‐yl]ethyl}phenyl)octanediamide] | 88 ± 7 nM | 17 ± 1 nM | 51 ± 4 nM | induced a reduction of HDAC1 protein levels | pronounced upregulation | pronounced upregulation | none of the used concentrations resulted in the degradation | minimal impact | 46% | none of the used concentrations resulted in the degradation | slightly affected | markedly increased | markedly lower than that of vorinostat | comparable to its parent inhibitor, vorinostat | none of the used concentrations resulted in the degradation | minimal impact | 8800 ± 4400 nM | 74% | 6480 ± 1180 nM | 27 ± 8 nM
